In patent US20210380988A1, “Reducing Prominin2-Mediated Resistance to Ferroptotic Cell Death” (University of Massachusetts, priority 2020, published 2021):
Where a SMILES comes first, the peptide text is derived from it. The star is where a group is joined. Cbz = O=C(OCc1ccccc1)*; CH2F = FC*

How the values were obtained:
Type in all cases: cell-based
prominin2 [1] = assay: PROM2 mRNA (qPCR) and prominin2 protein (immunoblot) expression in MCF10A cells; conditions: for prominin2 mRNA and protein expression: adherent MCF10A, 2 hrs, 5 μM RSL3, 250 μM H2O2
Description: (§1) Biochemical experiments: Immunoblotting and qPCR were performed as described (Brown C W, 2017). Briefly, for immunoblotting, cell lysates were extracted using radioimmunoprecipitation assay (RIPA) buffer (Boston Bioproducts). Extracts were separated by SDS PAGE using the specified antibodies. Immunoprecipitation was performed on lysates isolated using NP-40 buffer (Boston Bioproducts). Lysates were pre-cleared prior to overnight incubation with the primary antibody and protein A agarose beads (Sigma-Aldrich). Immune complexes were separated by SDS PAGE and immunoblotted as described in figure legends. RNA was isolated from cells (BioBasic) and cDNA was generated using the All in One cDNA Synthesis SuperMix (BioScript Solutions). qPCR was performed using a SYBR green master mix (BioScript Solutions). Sequences for primers used were as follows: […]

HSF1 [2] = assay: HSF1 mRNA, protein, S326 phosphorylation and nuclear localization in MCF10A cells; conditions: for time after treatment at which the increase in HSF1 mRNA peaked: 25 uM 4HNE or 5 uM RSL3; for expression of HSF1 mRNA by qPCR: 25 uM 4HNE or 5 uM RSL3, 0 to 120 minutes; for HSF1 protein expression and phosphorylation at S326: after 60 minutes of exposure
Description: as §1
(§2) Immunofluorescence microscopy: For adherent cells, 8 well chamber slides (Mattek) were coated with 1 μg/mL laminin (Invitrogen). Cells (5.0×10^4 per well) were plated overnight and then treated for two hours with either DMSO or RSL3, fixed in 4% paraformaldehyde and permeabilized in 0.1% Triton (JT Baker). Slides were blocked in 0.5% BSA (Boston Bioproducts), incubated in antibody overnight at 4° C., washed in PBS and incubated in secondary antibody for 1 hr at room temperature. Slides were washed and mounted in Vectashield with DAPI (Vector Labs). For ECM-detached experiments, cells were trypsinized and plated (5.0×10^5 per well) in 60 mm low-adherent plates (Sumitomo Bakelite) for two hr, collected and spun down prior to being fixed and stained as described above. Slides were imaged on a Zeiss or a Nikon A-1 confocal microscope.

HSF1 [3] = assay: as above; conditions: after 60 minutes of exposure
Hs578t cells [4] = assay: Survival of adherent cells in response to GPX4 inhibition (crystal violet); conditions: for sensitivity to compound in prominin2 knock-down cells compared to control cells: prominin2 siRNA 48 hours, compound 24 hrs
Description: (§3) Cell-based assays: Assays to assess survival in response to matrix detachment were performed as described (Brown C W, 2017). To assay survival in response to GPX4 inhibition, adherent cells in 96 well plates (1.0×10^4 per well) were treated with either DMSO, RSL3, ML210, FIN56 or erastin for 24 hrs with and without ferrostatin-1 or DFO. Subsequently, cells were fixed in 4% paraformaldehyde (Boston BioProducts), stained with crystal violet (Sigma) and read on a microplate reader (Beckman Colter) at absorbance 595. Absorbances were normalized to DMSO.

MCF10A cells [5] = assay: as above; conditions: for sensitivity to compound in prominin2 knock-down cells compared to control cells: prominin2 siRNA 48 hours, compound 24 hrs
Description: as §3

MDA-MB-231 cells [6] = assay: as above; conditions: for cell death in response to compound with exogenous prominin2 expression: MDA-MB-231, prominin2 expression construct vs vector control
Description: as §3

prominin2 [7] = assay: PROM2 mRNA (qPCR) and prominin2 protein (immunoblot) expression in Hs578t cells; conditions: adherent Hs578t, 2 hrs; 5 μM RSL3, 250 μM H2O2
Description: as §1

prominin2 [8] = assay: PROM2 mRNA (qPCR) and prominin2 protein (immunoblot) expression in MDA-MB-231 cells; conditions: adherent MDA-MB-231, RSL3 2 hrs
Description: as §1

prominin1 (CD133) = assay: PROM1 expression by qPCR; conditions: MCF10A and Hs578t cells, 5 μM RSL3, 2 hrs (FIG. 8A)
Description: as §1

Hs578t cells [9] = assay: Total free iron (Iron Assay Kit)
Description: (§4) Total free iron was quantified using the Iron Assay Kit (Abcam) per manufacturer's specifications. Briefly, adherent cells in 10 cm plates (1.0×10^6/well) were treated with either DMSO or RSL3 for 2 hrs, lysed and supernatant was reduced using the provided iron reducer before the mixture was reacted with an iron probe. Plates were read at 595 nm and total iron concentration was obtained using an iron standard curve.

MCF10A cells [10] = assay: Total free iron (Iron Assay Kit)
Description: as §4

MDA-MB-231 cells [11] = assay: Total free iron (Iron Assay Kit); conditions: MDA-MB-231 vector control, RSL3 2 hrs; prevented by prominin2 expression
Description: as §4

MCF10A cells [12] = assay: Multivesicular body formation (TSG101 immunofluorescence, TEM)
Description: as §2
Transmission Electron Microscopy: Adherent siControl and siProminin2 cells were treated with DMSO or RSL3 (5 μM) for two hr. ECM-detached siControl and siProminin2 cells were maintained for 2 hrs in low-adherence plates. All cells were fixed by adding 2.5% glutaraldehyde (v/v) in 0.1 M Na cacodylate buffer (pH 7.2) and processed for TEM. The samples were examined on a FEI Tecnai 12 BT transmission electron microscope using 100 Kv accelerating voltage. Images were captured using a Gatan TEM CCD camera.

Hs578t cells [13] = assay: Multivesicular body formation (TSG101 immunofluorescence); conditions: RSL3 2 hrs
Description: as §2

MCF10A and Hs578t cells = assay: Exosome isolation by ultracentrifugation (protein, ICP-MS iron)
Description: Exosome isolation: Cells were cultured for 24 hrs in their respective media containing extracellular vesicle (EV) free serum and treated with RSL3 for 24 hours. Culture supernatants were centrifuged at 4° C. at 1000 RPM for 5 min, 3000 RPM for 10 min, 4000 RPM for 30 min prior to ultracentrifugation at 22,000 RPM for 140 min at 4° C. Pellets were resuspended in cold PBS and centrifuged again under the same conditions. For immunoblotting, pellets were lysed in RIPA buffer, centrifuged at 10,000 RPM for 15 min and protein concentration was determined by Bradford Assay (BioRad). For TEM, PBS was removed and 20 μL of the exosome preparation was fixed and processed. For ICP-mass spec, exosome-containing pellet was resuspended in 0.5 mL PBS and centrifuged in a speed-vac at 45° C. Samples were sent to the UMASS Mass Spectrometry Core where they were digested in 100 μL HNO3, heated to 65° C. for 20 min and diluted to 2 mL with ddH2O before analysis.

Hs578t cells [14] = assay: Survival in response to matrix (ECM) detachment; conditions: 24 hrs, ferrostatin-1 (2 μM), ZVAD-fmk (25 μM), deferoxamine
Description: as §3

MCF10A cells [15] = assay: Survival in response to matrix (ECM) detachment; conditions: 24 hrs, ferrostatin-1 (2 μM), ZVAD-fmk (25 μM), deferoxamine
Description: as §3

## CCCCCC(O)/C=C/C=O (centres unmarked) [4HNE, 4-hydroxynonenal]
prominin2 [1]; mechanism dependent upon HSF1, cell line not named at b183
  PROM2 transcription: stimulates PROM2 transcription
HSF1 [2]
  time after treatment at which the increase in HSF1 mRNA peaked: 15 min
  expression of HSF1 mRNA by qPCR: significant increase
  HSF1 protein expression and phosphorylation at S326: increased HSF1 protein expression levels as well as phosphorylation at S326
HSF1 [3]
  HSF1 expression and nuclear localization: increased

## Cc1ccc(-n2nc(C(C)(C)C)cc2NC(=O)Nc2ccc(OCCN3CCOCC3)c3ccccc23)cc1 [BIRB]
HSF1 [2]; 10 uM BIRB pretreatment
  induction and phosphorylation of HSF1 following 4HNE or RSL3 treatment: prevented the induction and phosphorylation of HSF1
HSF1 [2]; 10 uM BIRB pretreatment 15 minutes
  increase in HSF1 expression and nuclear localization, treatment prior to 4HNE or RSL3: significantly reduced the increase in expression and nuclear localization
HSF1 [2]; pre-treated with 10 uM BIRB, after 30 minutes of treatment
  4HNE- or RSL3-driven increase in HSF1 expression on p38 inhibition: reduced the 4HNE- or RLS3-driven increase in HSF1 to basal levels

## O=S(=O)(NC1CCCCC1)c1ccc2c(c1)C(=NO)c1cc(S(=O)(=O)NC3CCCCC3)ccc1-2 [FIN56]
Hs578t cells [4]; Hs578t
  sensitivity to compound in prominin2 knock-down cells compared to control cells: significant increase in sensitivity
MCF10A cells [5]; MCF10A
  sensitivity to compound in prominin2 knock-down cells compared to control cells: significant increase in sensitivity
MDA-MB-231 cells [6]
  cell death in response to compound with exogenous prominin2 expression: sufficient to inhibit cell death

## O=C(/C=C/c1ccc(/C=C/C(=O)Nc2ccc(C3=NCCN3)cc2)cc1)Nc1ccc(C2=NCCN2)cc1 [GW4869]
Hs578t cells [4]; Hs578t, RSL3 (5 μM) and GW4869 (20 μM), 24 hrs
  sensitivity of cells to RSL3 on inhibition of exosome release: increased the sensitivity
MCF10A cells [5]; MCF10A, RSL3 (5 μM) and GW4869 (20 μM), 24 hrs
  sensitivity of cells to RSL3 on inhibition of exosome release: increased the sensitivity

## OO [H2O2]
prominin2 [1]
  prominin2 mRNA and protein expression: did not increase prominin2 expression
prominin2 [7]
  prominin2 mRNA and protein expression: did not increase prominin2 expression

## Cl.N [NH4Cl]
Hs578t cells [4]; Hs578t, 20 mM NH4Cl pre-treatment 60 min, then with RSL3 24 hrs (FIG. 10D)
  effect on cell survival following GPX4 inhibition: had no effect on cell survival

## COC(=O)c1ccc([C@@H]2c3[nH]c4ccccc4c3C[C@@H](C(=O)OC)N2C(=O)CCl)cc1 [RSL3]
Hs578t cells [4]; Hs578t
  sensitivity to compound in prominin2 knock-down cells compared to control cells: significant increase in sensitivity
Hs578t cells [4]; adherent Hs578t, 24 hrs, FIG. 1F
  RSL3 concentrations at which cells were resistant to RSL3-induced cell death: up to 2.5
MCF10A cells [5]; MCF10A
  sensitivity to compound in prominin2 knock-down cells compared to control cells: significant increase in sensitivity
MCF10A cells [5]; adherent MCF10A, 24 hrs, FIG. 1F
  RSL3 concentrations at which cells were resistant to RSL3-induced cell death: up to 2.5
MDA-MB-231 cells [6]
  cell death in response to compound with exogenous prominin2 expression: sufficient to inhibit cell death
MDA-MB-231 cells [6]; adherent MDA-MB-231, 24 hrs, FIG. 1F
  RSL3 concentrations by which cells were killed: ≥ 0.5 µM
prominin2 [1]
  prominin2 mRNA and protein expression: increased prominin2 mRNA and protein expression
prominin2 [7]
  prominin2 mRNA and protein expression: increased prominin2 mRNA and protein expression
prominin2 [8]
  induction of prominin2: did not induce prominin2
prominin1 (CD133)
  expression of prominin1 (CD133): not altered significantly
HSF1 [2]
  time after treatment at which the increase in HSF1 mRNA peaked: 15 min
  expression of HSF1 mRNA by qPCR: significant increase
  HSF1 protein expression and phosphorylation at S326: increased HSF1 protein expression levels as well as phosphorylation at S326
Hs578t cells [9]; 5 μM RSL3, 2 hrs
  free iron concentration, RSL3-treated vs control cells: no significant difference
Hs578t cells [9]; siRNA 48 hrs, RSL3 2 hrs
  concentration of free iron following RSL3 treatment when either prominin2 or both FTH1 and FTL were silenced: increase
MCF10A cells [10]; 5 μM RSL3, 2 hrs
  free iron concentration, RSL3-treated vs control cells: no significant difference
MCF10A cells [10]; siRNA 48 hrs, RSL3 2 hrs
  concentration of free iron following RSL3 treatment when either prominin2 or both FTH1 and FTL were silenced: increase
MDA-MB-231 cells [11]
  free iron in response to RSL3 in control cells: increase in iron
MCF10A cells [12]; RSL3 2 hrs
  TSG101-positive structures vs vehicle control-treated cells: more TSG101-positive structures
MCF10A cells [12]; RSL3, effect not observed in prominin2-silenced cells
  MVBs per cell by TEM vs control cells: significantly more MVBs per cell
Hs578t cells [13]
  TSG101-positive structures vs vehicle control-treated cells: more TSG101-positive structures
MCF10A and Hs578t cells; 1 μM RSL3, 24 hours, exosomal protein in control cells not detected
  protein in the exosome preparation: significant amount of protein
MCF10A and Hs578t cells; exosomes harvested from RSL3-treated cells
  iron in exosomes by ICP-MS: 3400 ng per exosome collection sample
HSF1 [3]
  HSF1 expression and nuclear localization: increased

## COC(=O)C[C@H](NC(=O)[C@H](C)NC(=O)[C@@H](NC(=O)OCc1ccccc1)C(C)C)C(=O)CF [ZVAD-fmk] (Cbz-Val-Ala-Asp(OMe)-CH2F)
Hs578t cells [14]
  rescue of cell viability of ECM-detached prominin2-silenced cells by co-treatment: not
MCF10A cells [15]
  rescue of cell viability of ECM-detached prominin2-silenced cells by co-treatment: not

## C#Cc1cccc(Nc2ncnc3cc(OCCOC)c(OCCOC)cc23)c1 [erlotinib]
MCF10A cells [5]; MCF10A, 100 nM Dasatinib or 25 uM Erlotinib with RSL3, 24 hours
  sensitivity to RSL3 on co-treatment with other therapeutics: did not significantly improve sensitivity

## CCOC(=O)c1ccc(NC2CCCCC2)c(N)c1 [ferrostatin-1]
Hs578t cells [4]; Hs578t, RSL3 24 hrs, 100 uM deferoxamine
  rescue of cell death triggered by GPX4 inhibition in FTH1 and FTL knock-down cells: rescued
Hs578t cells [4]; Hs578t, RSL3 (5 μM) and ferrostatin-1 (2 μM), 24 hrs
  rescue of loss of cell viability in prominin2-depleted cells: completely rescued
MCF10A cells [5]; MCF10A, RSL3 24 hrs, 100 uM deferoxamine
  rescue of cell death triggered by GPX4 inhibition in FTH1 and FTL knock-down cells: rescued
MCF10A cells [5]; MCF10A, RSL3 (5 μM) and ferrostatin-1 (2 μM), 24 hrs
  rescue of loss of cell viability in prominin2-depleted cells: completely rescued
MCF10A cells [5]; MCF10A, TSG101 siRNA 48 hours, RSL3 and ferrostatin-1 24 hrs (FIG. 4C)
  rescue of RSL3-induced cell death in cells with diminished TSG101 expression: rescued
Hs578t cells [14]
  rescue of cell viability of ECM-detached prominin2-silenced cells by co-treatment: rescued
MCF10A cells [15]
  rescue of cell viability of ECM-detached prominin2-silenced cells by co-treatment: rescued
